The term inhibition denotes the change of the read-out against control, counted positive when it falls.

From patent publication US10077261B2, “Imidazolin-5-one derivative useful as FASN inhibitors for the treatment of cancer” (Janssen Pharmaceutica NV, priority 2012, dated 2018) come the findings set out here.

The assay addresses T1, hFASN enzyme (full length) (Homo sapiens, UniProt P49327).
T1 construct: 10 μL hFASN enzyme (full length, 300 ng, purified in house); made in house
As to the kind of experiment: Fatty Acid Synthase (FASN) inhibition scintillation proximity assay. The assay is classed as biochemical. The following applies: for inhibition at 10 µM: read-out: Human FASN % inhibition @ 10 μM, 10 μM test compound; for IC50: read-out: Human FASN pIC50 (converted). Summed up:
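Purified full-length hFASN (300 ng) converts ^3H-acetyl-CoA plus malonyl-CoA to ^3H-palmitate in 100 mM KH2PO4 pH 7.5, 1 mM DTT; compounds tested at 0.01–30 μM. Product captured on streptavidin imaging beads and read by LEADseeker at 610 nm after ≥24 h; 4-parameter logistic fit versus controls.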
A general note: SPA uses beads or plates that emit light when radiolabelled molecules are held near them.

T1 sequence (P49327 whole entry): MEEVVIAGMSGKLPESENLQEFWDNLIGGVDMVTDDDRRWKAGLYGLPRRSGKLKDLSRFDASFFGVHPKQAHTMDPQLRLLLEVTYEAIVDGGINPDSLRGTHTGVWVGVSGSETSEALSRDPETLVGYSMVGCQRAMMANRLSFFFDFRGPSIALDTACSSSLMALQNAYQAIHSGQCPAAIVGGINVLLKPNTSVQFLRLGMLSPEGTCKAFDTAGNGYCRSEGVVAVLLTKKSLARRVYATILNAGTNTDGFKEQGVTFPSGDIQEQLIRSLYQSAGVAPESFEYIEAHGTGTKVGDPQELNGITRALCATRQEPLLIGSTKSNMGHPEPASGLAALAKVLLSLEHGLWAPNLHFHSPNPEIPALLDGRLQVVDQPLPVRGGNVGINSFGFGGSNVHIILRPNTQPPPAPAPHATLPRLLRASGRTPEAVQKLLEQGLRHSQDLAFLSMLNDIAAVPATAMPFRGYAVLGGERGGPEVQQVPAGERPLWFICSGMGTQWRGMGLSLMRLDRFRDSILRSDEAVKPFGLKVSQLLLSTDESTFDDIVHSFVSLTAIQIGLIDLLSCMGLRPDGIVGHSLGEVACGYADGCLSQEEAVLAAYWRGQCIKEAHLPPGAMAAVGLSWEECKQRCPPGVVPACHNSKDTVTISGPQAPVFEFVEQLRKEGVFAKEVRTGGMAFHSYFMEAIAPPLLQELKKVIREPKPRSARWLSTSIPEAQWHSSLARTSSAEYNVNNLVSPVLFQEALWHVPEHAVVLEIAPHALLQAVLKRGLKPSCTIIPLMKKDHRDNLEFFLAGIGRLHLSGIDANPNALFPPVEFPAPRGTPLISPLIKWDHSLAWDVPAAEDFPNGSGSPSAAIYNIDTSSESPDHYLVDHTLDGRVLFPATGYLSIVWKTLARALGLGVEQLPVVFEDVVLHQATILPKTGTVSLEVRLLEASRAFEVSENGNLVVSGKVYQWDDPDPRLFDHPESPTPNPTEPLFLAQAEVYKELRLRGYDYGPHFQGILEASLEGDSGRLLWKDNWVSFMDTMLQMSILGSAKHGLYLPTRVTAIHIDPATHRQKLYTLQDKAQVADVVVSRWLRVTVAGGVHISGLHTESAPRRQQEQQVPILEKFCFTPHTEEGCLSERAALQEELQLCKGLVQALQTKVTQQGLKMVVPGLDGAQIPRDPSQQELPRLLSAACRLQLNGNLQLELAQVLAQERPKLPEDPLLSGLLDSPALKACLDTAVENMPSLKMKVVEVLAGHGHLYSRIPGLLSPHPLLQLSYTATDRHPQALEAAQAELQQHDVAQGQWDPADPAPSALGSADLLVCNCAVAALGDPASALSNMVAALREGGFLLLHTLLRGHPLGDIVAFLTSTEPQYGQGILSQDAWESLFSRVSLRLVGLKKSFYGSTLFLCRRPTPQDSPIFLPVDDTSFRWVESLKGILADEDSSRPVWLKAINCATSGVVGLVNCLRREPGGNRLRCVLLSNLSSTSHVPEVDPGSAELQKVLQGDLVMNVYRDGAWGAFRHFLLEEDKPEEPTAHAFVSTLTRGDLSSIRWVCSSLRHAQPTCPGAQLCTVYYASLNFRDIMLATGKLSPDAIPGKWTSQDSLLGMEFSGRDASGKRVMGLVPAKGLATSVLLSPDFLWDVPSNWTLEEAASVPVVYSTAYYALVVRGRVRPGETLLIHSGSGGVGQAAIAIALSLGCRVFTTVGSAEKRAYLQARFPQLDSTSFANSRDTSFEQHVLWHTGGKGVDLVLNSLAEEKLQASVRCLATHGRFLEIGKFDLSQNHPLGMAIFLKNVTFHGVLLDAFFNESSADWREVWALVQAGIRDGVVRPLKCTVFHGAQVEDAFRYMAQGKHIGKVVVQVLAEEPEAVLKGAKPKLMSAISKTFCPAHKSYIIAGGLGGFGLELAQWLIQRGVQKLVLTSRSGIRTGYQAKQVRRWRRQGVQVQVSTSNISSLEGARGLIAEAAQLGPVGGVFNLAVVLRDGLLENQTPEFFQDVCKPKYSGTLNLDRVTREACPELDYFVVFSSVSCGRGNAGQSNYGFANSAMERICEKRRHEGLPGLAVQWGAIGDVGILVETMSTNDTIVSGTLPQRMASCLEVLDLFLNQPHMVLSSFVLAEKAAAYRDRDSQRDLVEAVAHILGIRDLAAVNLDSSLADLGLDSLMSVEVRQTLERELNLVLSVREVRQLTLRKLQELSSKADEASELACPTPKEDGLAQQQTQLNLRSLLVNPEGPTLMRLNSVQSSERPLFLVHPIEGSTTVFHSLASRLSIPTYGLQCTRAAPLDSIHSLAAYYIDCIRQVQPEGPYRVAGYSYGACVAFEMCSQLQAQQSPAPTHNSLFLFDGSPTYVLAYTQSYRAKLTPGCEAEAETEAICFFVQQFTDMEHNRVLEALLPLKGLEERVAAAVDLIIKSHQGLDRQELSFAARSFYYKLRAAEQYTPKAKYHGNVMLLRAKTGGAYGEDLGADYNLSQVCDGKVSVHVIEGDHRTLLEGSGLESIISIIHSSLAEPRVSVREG

Turning to `CS(=O)(=O)N1CC(CN2C(=O)C3(CCOCC3)N=C2c2ccc(-c3ccc4cccnc4c3)cc2)C1` [compound 912, 3-((1-(methylsulfonyl)azetidin-3-yl)methyl)-2-(4-(quinolin-7-yl)phenyl)-8-oxa-1,3-diazaspiro[4.5]dec-1-en-4-one], the inhibition at 10 µM was found to be 1% and the IC50 is more than 10 µM.

Consider `CS(=O)(=O)N1CC[C@@H](CN2C(=O)C3(CCOCC3)N=C2c2ccc(-c3ccc4occc4c3)cc2)C1` [compound 913, (S)-2-(4-(benzofuran-5-yl)phenyl)-3-((1-(methylsulfonyl)pyrrolidin-3-yl)methyl)-8-oxa-1,3-diazaspiro[4.5]dec-1-en-4-one], for which the inhibition at 10 µM came to 0.4% and the IC50 is more than 10 µM.

On to `CS(=O)(=O)N1CC[C@@H](CN2C(=O)C3(CCOC3)N=C2c2ccc(-c3ccc4occc4c3)cc2)C1` (stereo partly drawn) [compound 914, 2-(4-(benzofuran-5-yl)phenyl)-3-(((S)-1-(methylsulfonyl)pyrrolidin-3-yl)methyl)-7-oxa-1,3-diazaspiro[4.4]non-1-en-4-one], for which the inhibition at 10 µM was determined as 1% and the IC50 is more than 10 µM.

Consider `COC(=O)N1CC[C@@H](CN2C(=O)C3(CCOC3)N=C2c2ccc(-c3ccc4c(cnn4C)c3)cc2)C1` (stereo partly drawn) [compound 915, (3S)-methyl 3-((2-(4-(1-methyl-1H-indazol-5-yl)phenyl)-4-oxo-7-oxa-1,3-diazaspiro[4.4]non-1-en-3-yl)methyl)pyrrolidin-1-carboxylate], for which the inhibition at 10 µM stood at 11% and the IC50 is more than 10 µM.

For the compound `COC(=O)N1CC[C@@H](CN2C(=O)C3(CN(C(=O)OC)C3)N=C2c2ccc(-c3ccc4c(cnn4C)c3)cc2)C1` [compound 916, (S)-methyl 7-((1-(methoxycarbonyl)pyrrolidin-3-yl)methyl)-6-(4-(1-methyl-1H-indazol-5-yl)phenyl)-8-oxo-5,7-triazaspiro[3.4]oct-5-ene-2-carboxylate], the inhibition at 10 µM came out at 20% and the IC50 is more than 10 µM.

Take `COC(=O)N1CC2(C1)N=C(c1ccc(-c3ccc4c(cnn4C)c3)cc1)N(C[C@@H]1CCN(S(C)(=O)=O)C1)C2=O` [compound 917, (S)-methyl 6-(4-(1-methyl-1H-indazol-5-yl)phenyl)-7-((1-(methylsulfonyl)pyrrolidin-3-yl)methyl)-8-oxo-2,5,7-triazaspiro[3.4]oct-5-ene-2-carboxylate]: the inhibition at 10 µM was 2% and the IC50 was more than 10 µM.

Turning to `COC(=O)N1CC2(C1)N=C(c1ccc(-c3ccc(-c4cnn(C)c4)cc3)cc1)N(C[C@@H]1CCN(C(=O)C(F)(F)F)C1)C2=O` [compound 919, (R)-methyl 6-(4′-(1-methyl-1H-pyrazol-4-yl)-[1,1′-biphenyl]-4-yl)-8-oxo-7-((1-(2,2,2-trifluoroacetyl)pyrrolidin-3-yl)methyl)-2,5,7-triazaspiro[3.4]oct-5-ene-2-carboxylate], the inhibition at 10 µM was found to be 12% and the IC50 was more than 10 µM.

With `O=C(c1nccs1)N1CC[C@@H](CN2C(=O)C3(CCOC3)N=C2c2ccc(-c3ccc4cccnc4c3)cc2)C1` (stereo partly drawn) [compound 920, 2-(4-(quinolin-7-yl)phenyl)-3-(((R)-1-(thiazole-2-carbonyl)pyrrolidin-3-yl)methyl)-7-oxa-1,3-diazaspiro[4.4]non-1-en-4-one], the inhibition at 10 µM came to 35% and the IC50 was more than 10 µM.

For the compound `Cn1cc(-c2ccc(-c3ccc(C4=NC5(CCOCC5)C(=O)N4CC4CN(S(C)(=O)=O)C4)cc3)cc2)cn1` [compound 921, 2-(4′-(1-methyl-1H-pyrazol-4-yl)-[1,1′-biphenyl]-4-yl)-3-((1-(methylsulfonyl)azetidin-3-yl)methyl)-8-oxa-1,3-diazaspiro[4.5]dec-1-en-4-one], the inhibition at 10 µM is -7% and the IC50 is more than 10 µM.

Take `COC(=O)N1CC2(C1)N=C(c1ccc(-c3ccc(-c4cnn(C)c4)cc3)cc1)N(C[C@@H]1CCN(C(=O)N3CCCC3)C1)C2=O` [compound 924, (S)-methyl 6-(4′-(1-methyl-1H-pyrazol-4-yl)-[1,1′-biphenyl]-4-yl)-8-oxo-7-((1-(pyrrolidine-1-carbonyl)pyrrolidin-3-yl)metrhyl)-2,5,7-triazaspiro[3.4]oct-5-ene-2-carboxylate]: the inhibition at 10 µM was 41% and the IC50 is more than 10 µM.

Take `O=C(C1CC1)N1CCC[C@@H](CN2C(=O)C3(CC3)N=C2c2ccc(-c3ccc(O)cc3)cc2)C1` [compound 925, (R)-6-((1-(cyclopropanecarbonyl)piperidin-3-yl)methyl)-5-(4′-hydroxy-[1,1′-biphenyl]-4-yl)-4,6-diazaspiro[2.4]hept-4-en-7-one]: the inhibition at 10 µM was 5% and the IC50 is more than 10 µM.

As to `Cn1ncc2cc(-c3ccc(C4=NC5(CCOCC5)C(=O)N4C[C@@H]4CCN(S(C)(=O)=O)C4)cc3)ccc21` [compound 926, (S)-2-(4-(1-methyl-1H-indazol-5-yl)phenyl)-3-((1-(methylsulfonyl)pyrrolidin-3-yl)methyl)-8-oxa-1,3-diazaspiro[4.5]dec-1-en-4-one], the inhibition at 10 µM was -8% and the IC50 is more than 10 µM.

For `COC(=O)N1CC(CN2C(=O)C3(CCOC3)N=C2c2ccc(-c3ccc(-c4cnn(C)c4)cc3)cc2)C1` (stereo not drawn) [compound 927, methyl 3-((2-(4′-(1-methyl-1H-pyrazol-4-yl)-[1,1′-biphenyl]-4-yl)-4-oxo-7-oxa-1,3-diazaspiro[4.4]non-1-en-3-yl)methyl)azetidine-1-carboxylate], the inhibition at 10 µM is -2% and the IC50 was more than 10 µM.

As to `COC(=O)N1CC(CN2C(=O)C3(CCOCC3)N=C2c2ccc(-c3ccc4occc4c3)cc2)C1` [compound 928], the inhibition at 10 µM came to 10% and the IC50 is more than 10 µM.

As for `COC(=O)N1CC2(C1)N=C(c1ccc(-c3ccc(-c4cnn(C)c4)cc3)cc1)N(C[C@@H]1CCN(C(=O)c3nccs3)C1)C2=O` [compound 929, (R)-methyl 6-(4′-(1-methyl-1H-pyrazol-4-yl)-[1,1′-biphenyl]-4-yl)-8-oxo-7-((1-(thiazole-2-carbonyl)pyrrolidin-3-yl)methyl)-2,5,7-triazaspiro[3.4]oct-5-ene-2-carboxylate], the inhibition at 10 µM is 6% and the IC50 was more than 10 µM.

Regarding `O=C(c1nccs1)N1CC(CN2C(=O)C3(CCOC3)N=C2c2ccc(-c3ccc4cccnc4c3)cc2)C1` (stereo not drawn) [compound 930, 2-(4-(quinolin-7-yl)phenyl)-3-((1-(thiazole-2-carbonyl)azetidin-3-yl)methyl)-7-oxa-1,3-diazaspiro[4.4]non-1-en-4-one], the inhibition at 10 µM is -14% and the IC50 is more than 10 µM.

Consider `COC(=O)N1CC[C@@H](CN2C(=O)C3(CN(C(=O)OC)C3)N=C2c2ccc(-c3ccc4occc4c3)cc2)C1` [compound 931, (S)-methyl 6-(4-(benzofuran-5-yl)phenyl)-7-((1-(methoxycarbonyl)pyrrolidin-3-yl)methyl)-8-oxo-2,5,7-triazaspiro[3.4]oct-5-ene-2-carboxylate], for which the inhibition at 10 µM was determined as 31% and the IC50 was more than 10 µM.

In the case of `O=C(c1nccs1)N1CC(CN2C(=O)C3(CCOC3)N=C2c2ccc(-c3ccc4occc4c3)cc2)C1` (stereo not drawn) [compound 932, 2-(4-(benzofuran-5-yl)phenyl)-3-((1-(thiazole-2-carbonyl)azetidin-3-yl)methyl)-7-oxa-1,3-diazaspiro[4.4]non-1-en-4-one], the inhibition at 10 µM was 2% and the IC50 is more than 10 µM.
